# Data: paper PMC2866756 (Antiviral research, 2010)
# Where two headings read alike, the source gives them in different places. Marks after values point to notes of the source that are not given here.
# Experiments:
# skin tissue = settings: skin organ culture; ref Taylor and Moffat, 2005; cited from earlier work
# VZV-BAC-Luc [1] = experiment: Skin organ culture; format: cell-based, Varicella-zoster virus; settings: for antiviral effects in SOC compared with cultured HFFs: 2 dpi, same concentrations as in HFFs (EC99 doses); for effect on total flux in skin explants: SOC, EC99 doses: 400 μM acyclovir, 1 mM PAA, 1 mM L-mimosine, 50 μM DRB, 20 μM aphidicolin, 20 μM aloisine A, 20 μM purvalanol A, 25 μM roscovitine
# [2] = Tolerability in SCID-Hu mice
# VZV-BAC-Luc [3] = format: in vivo, Varicella-zoster virus; settings: for effect on VZV growth rate in vivo: SCID-Hu mice, dose groups combined, 3 experiments
# VZV [4] = experiment: Attempt to isolate roscovitine-resistant VZV by continuous culture; format: cell-based, Varicella-zoster virus; settings: 10 weeks of continuous culture at doses below the EC50, authors' observations
# VZV [5] = settings: ref Taylor et al., 2004; cited from earlier work
# VZV [6] = experiment: Antiviral assay, VZV yield by infectious focus; format: cell-based, Varicella-zoster virus; settings: for Selective Index: cytotoxic dose divided by the EC50 (plaque assay)
# VZV [7] = experiment: Antiviral assay, VZV genome copy number by quantitative PCR; format: cell-based, Varicella-zoster virus; settings: read-out: VZV EC50 (qPCR)
# HFFs = settings: for Cell Growth Arrest Dose: lowest dose for which absorbance at 48 h was the same as at 0 h
# [8] = 0.7 mg/kg/day, s.c. osmotic pump, 7 days
# [9] = 1.5 mg/kg/day, s.c. osmotic pump, 7 days
# [10] = 2.8 mg/kg/day, s.c. osmotic pump, 7 days
# [11] = 4.3 mg/kg/day, s.c. osmotic pump, 7 days
# [12] = Human alphaherpesvirus 3, MeWo, 48 h, read-out: VZV EC50 (titer)
# [13] = subconfluent HFFs, 48 h, fold change less than 1, * = solubility limit
# [14] = read-out: VZV EC50 (titer), HFFs, 48 h, titered on MeWo cells
# [15] = HFFs, 48 h, ORF38 copies normalized to β-globin
structure (smiles),measurement,setting,value
"CC[C@H](CO)Nc1nc(NCc2ccccc2)c2ncn(C(C)C)c2n1 (racemic) [Roscovitine (racemic), Roscovitine]",cytotoxicity by histopathological analysis of skin tissue,skin tissue,neither DMSO nor roscovitine was cytotoxic
same,antiviral effects in SOC compared with cultured HFFs,VZV-BAC-Luc [1],similar
same,effect on total flux in skin explants,VZV-BAC-Luc [1],reduced the total flux
same,Mortality,[2]; [8],0/5
same,ABWD,[2]; [9],−0.10 grams
same,Mortality,[2]; [9],0/4
same,ABWD,[2]; [10],−1.60 grams
same,Mortality,[2]; [10],0/7
same,ABWD,[2]; [11],0.36 grams
same,Mortality,[2]; [11],0/5
same,Avg. VZV Growth Rate,VZV-BAC-Luc [3]; [8],0.13 Log10 photons/sec/day
same,Avg. VZV Growth Rate,VZV-BAC-Luc [3]; [9],0.12 Log10 photons/sec/day
same,Avg. VZV Growth Rate,VZV-BAC-Luc [3]; [10],0.24 Log10 photons/sec/day
same,Avg. VZV Growth Rate,VZV-BAC-Luc [3]; [11],0.26 Log10 photons/sec/day
same,effect on VZV growth rate in vivo,VZV-BAC-Luc [3],significantly reduced VZV growth rates
same,isolation of a resistant strain of VZV,VZV [4],failed
same,reversibility of antiviral effect,VZV [5],reversible
same,EC50,VZV [6]; [12],4 µM
Nc1nc2c(ncn2COCCO)c(=O)[nH]1 [Acyclovir],EC50,"VZV [7]; Human alphaherpesvirus 3, 48 h",5 µM
same,tolerance in Neutral Red assay,HFFs,tolerated up through the limit of their solubility
same,Cytotoxic Dose,"HFFs; human, 48 h",1.0 × 10^3* μM
same,EC50,VZV [6]; [12],4 µM
CCCCc1c(-c2ccc(O)cc2)[nH]c2nccnc12 [Aloisine A],antiviral effects in SOC compared with cultured HFFs,VZV-BAC-Luc [1],much lower
same,effect on total flux in skin explants,VZV-BAC-Luc [1],increased
same,EC50,"VZV [7]; Human alphaherpesvirus 3, 48 h",2 µM
same,tolerance in Neutral Red assay,"HFFs; HFFs, culture medium at 37°C",tolerated up through the limit of their solubility
same,Cell Growth Arrest Dose,HFFs; HFFs,20 µM
same,EC50,VZV [6]; [12],2.5 µM
same,EC50,"VZV [6]; Human alphaherpesvirus 3, read-out: EC50 values",2 to 4 µM
C[C@@]1(CO)[C@H](O)CC[C@@]2(C)[C@H]1CC[C@H]1C[C@@H]3C[C@@]12CC[C@]3(O)CO [Aphidicolin],antiviral effects in SOC compared with cultured HFFs,VZV-BAC-Luc [1],similar
same,effect on total flux in skin explants,VZV-BAC-Luc [1],reduced the total flux
same,tolerance in Neutral Red assay,"HFFs; HFFs, culture medium at 37°C",tolerated up through the limit of their solubility
same,Selective Index,VZV [6],833
"C[S+](C)[O-] [DMSO, Dimethylsulfoxide]",effect on cell growth,"HFFs; HFFs, 400 mM",inhibited cell growth slightly
same,concentration with no effect in Neutral Red assay,"HFFs; HFFs, 48 h",up to 150 mM
same,Cytotoxic Dose,HFFs; [13],>400000 µM
same,EC50,VZV [6]; [14],75000 µM
"OC[C@H]1O[C@@H](n2cnc3cc(Cl)c(Cl)cc32)[C@H](O)[C@@H]1O [DRB, Dichloro-β-D-ribofurano-sylbenzimidazole]",antiviral effects in SOC compared with cultured HFFs,VZV-BAC-Luc [1],similar
same,effect on total flux in skin explants,VZV-BAC-Luc [1],reduced the total flux
same,EC50,VZV [7]; [15],2 µM
same,Cell Growth Arrest Dose,HFFs; HFFs,50 µM
same,EC50,VZV [6]; [14],5 µM
N[C@@H](Cn1ccc(=O)c(O)c1)C(=O)O [L-mimosine],antiviral effects in SOC compared with cultured HFFs,VZV-BAC-Luc [1],similar
same,effect on total flux in skin explants,VZV-BAC-Luc [1],reduced the total flux
same,EC50,"VZV [7]; Human alphaherpesvirus 3, 48 h",50 µM
same,Cell Growth Arrest Dose,HFFs; HFFs,300 µM
same,Cytotoxic Dose,"HFFs; human, 48 h",3000 µM
same,EC50,VZV [6]; [12],70 µM
same,Selective Index,VZV [6],43
"O=C(O)CP(=O)(O)O [Phosphonoacetic acid (PAA), Phosphonoacetic acid]",EC50,"VZV [7]; Human alphaherpesvirus 3, 48 h",500 µM
same,Cytotoxic Dose,"HFFs; human, 48 h",15000 µM
same,EC50,VZV [6]; [12],300 µM
CC(C)[C@H](CO)Nc1nc(Nc2cccc(Cl)c2)c2ncn(C(C)C)c2n1 [Purvalanol A],antiviral effects in SOC compared with cultured HFFs,VZV-BAC-Luc [1],much lower
same,effect on total flux in skin explants,VZV-BAC-Luc [1],increased
same,ABWD,"[2]; 20 mg/kg/day, daily i.p. injection",−2.96 grams
same,tolerability in mice,"[2]; i.p. injection, 20 or 10 mg/kg/day",not as well tolerated as roscovitine
same,Cell Growth Arrest Dose,HFFs; HFFs,10 µM
same,Cytotoxic Dose,HFFs; [13],20 µM
same,Avg. VZV Growth Rate,"VZV-BAC-Luc [3]; 10 mg/kg/day, daily i.p. injection",0.37 Log10 photons/sec/day
same,effect on VZV growth rate in vivo,VZV-BAC-Luc [3],not effective at reducing the rate of VZV growth
same,effect on VZV growth rate in vivo,VZV-BAC-Luc [3]; listed as purvalanol A,No difference
same,Selective Index,VZV [6],570
CC[C@H](CO)Nc1nc(NCc2ccccc2)c2ncn(C(C)C)c2n1 [R-Roscovitine],EC50,"VZV [7]; Human alphaherpesvirus 3, 48 h",3 µM
same,EC50,VZV [6]; [12],3.5 µM
CC[C@@H](CO)Nc1nc(NCc2ccccc2)c2ncn(C(C)C)c2n1 [S-Roscovitine],EC50,VZV [7]; [15],1 µM
same,EC50,VZV [6]; [14],2.5 µM
CN[C@@H]1C[C@H]2O[C@@](C)([C@@H]1OC)n1c3ccccc3c3c4c(c5c6ccccc6n2c5c31)C(=O)NC4 [staurosporine],live cells after treatment,"HFFs; HFFs, 35 nM, positive control for cell death",No live cells were detected
